{
  "source": "paper PMC8802617",
  "about": "(Bioorganic & medicinal chemistry, 2018)",
  "key": {"[1]": {"biological_target": "T1, KOR (Homo sapiens, UniProt P41145)", "T1 sequence (P41145 whole entry)": "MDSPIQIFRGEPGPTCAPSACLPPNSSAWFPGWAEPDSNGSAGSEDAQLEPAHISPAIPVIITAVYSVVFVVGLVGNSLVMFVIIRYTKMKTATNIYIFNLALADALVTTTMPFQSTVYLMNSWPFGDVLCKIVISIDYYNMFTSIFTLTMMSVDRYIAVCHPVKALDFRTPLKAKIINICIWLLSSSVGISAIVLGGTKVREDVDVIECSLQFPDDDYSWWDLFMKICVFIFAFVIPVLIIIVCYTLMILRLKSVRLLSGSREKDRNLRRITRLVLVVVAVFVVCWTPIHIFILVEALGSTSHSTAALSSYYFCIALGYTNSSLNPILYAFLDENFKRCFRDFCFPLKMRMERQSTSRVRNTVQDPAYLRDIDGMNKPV", "details": "read-out: KOR Ki, cited from earlier work"}, "[2]": {"biological_target": "T2, MOR (Homo sapiens, UniProt P35372)", "T2 sequence (P35372 whole entry)": "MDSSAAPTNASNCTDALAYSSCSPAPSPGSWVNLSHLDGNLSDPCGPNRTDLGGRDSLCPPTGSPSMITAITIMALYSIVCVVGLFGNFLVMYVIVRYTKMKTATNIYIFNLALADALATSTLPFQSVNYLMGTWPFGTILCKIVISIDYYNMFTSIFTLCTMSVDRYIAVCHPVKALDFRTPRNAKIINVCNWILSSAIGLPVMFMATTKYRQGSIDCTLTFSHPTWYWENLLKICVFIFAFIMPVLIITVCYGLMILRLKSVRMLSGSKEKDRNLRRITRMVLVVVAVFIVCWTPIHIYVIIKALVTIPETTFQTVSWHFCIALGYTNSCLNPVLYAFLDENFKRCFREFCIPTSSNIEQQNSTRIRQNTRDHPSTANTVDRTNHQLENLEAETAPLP", "details": "read-out: MOR Ki; literature value ref 16; cited from earlier work"}, "[3]": {"biological_target": "T3, DOR (Homo sapiens, UniProt P41143)", "T3 sequence (P41143 whole entry)": "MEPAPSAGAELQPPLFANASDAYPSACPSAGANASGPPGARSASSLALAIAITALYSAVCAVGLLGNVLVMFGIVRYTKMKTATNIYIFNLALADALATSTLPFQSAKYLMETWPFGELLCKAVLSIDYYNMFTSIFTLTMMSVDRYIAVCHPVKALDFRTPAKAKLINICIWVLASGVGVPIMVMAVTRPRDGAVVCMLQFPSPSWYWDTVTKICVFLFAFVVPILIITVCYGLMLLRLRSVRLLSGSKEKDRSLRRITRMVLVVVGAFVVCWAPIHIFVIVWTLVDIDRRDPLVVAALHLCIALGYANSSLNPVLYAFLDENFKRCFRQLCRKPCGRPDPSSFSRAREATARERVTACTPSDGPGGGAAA", "details": "read-out: DOR Ki; literature value ref 16; cited from earlier work"}, "[4]": {"biological_target": "T2, MOR", "assay_type": "binding", "details": "membranes from transient HEK cells"}, "[5]": {"biological_target": "T3, DOR", "assay_type": "binding", "details": "membranes from transient HEK cells"}, "[6]": {"biological_target": "T1, KOR", "assay": "biochemical", "assay_type": "binding"}, "[7]": {"biological_target": "T2, MOR", "assay": "Split luciferase cAMP assay, agonist mode, HEK cells stably expressing MOR", "assay_type": "cell-based"}, "[8]": {"biological_target": "T3, DOR", "assay": "Split luciferase cAMP assay, agonist mode, HEK cells stably expressing DOR", "assay_type": "cell-based"}, "[9]": {"biological_target": "T1, KOR", "assay": "cell-based"}},
  "note": "Like-named read-outs stand apart in the source and are kept apart here. *1 amine or outer side, *2 acyl side, *3 side chain or, on linkers, in order; H or OH if unused. Where a SMILES comes first, the peptide text is derived from it. Bridges are numbered along the chain shown (N, C = ends). Roman numbers before positions name the chains, in order. [ ]: non-standard residue; d: D form. Piperazine(1,4-diyl) = C1CN([*:2])CCN1[*:1]; dPen = CC(C)(S)[C@@H](N)C(=O)O",
  "data": [
    {"compound": "Biphalin", "values": [
      {"measurement": "Ki", "setting": "[1]; literature value ref 6", "value": "270 ± 15", "unit": "nM"}
    ]},
    {"compound": "c^2,2′(Tyr-DPen-Gly-Phe-NH-)2 (YCGF) [compound 6]", "values": [
      {"measurement": "Ki", "setting": "[2]", "value": "5.2 ± 0.5", "unit": "nM"},
      {"measurement": "Ki", "setting": "[3]", "value": "1.9 ± 0.2", "unit": "nM"},
      {"measurement": "Ki", "setting": "[1]; literature value ref 16", "value": "257 ± 25", "unit": "nM"}
    ]},
    {"compound": "CC1(C)SSC(C)(C)[C@@H](NC(=O)[C@@H](N)Cc2ccc(O)cc2)C(=O)NCC(=O)N[C@@H](Cc2ccccc2)C(=O)N2CCN(CC2)C(=O)[C@H](Cc2ccccc2)NC(=O)CNC(=O)[C@@H]1NC(=O)[C@@H](N)Cc1ccc(O)cc1", "note": "[ligand 3, c^2,2′(Tyr-DPen-Gly-Phe)2-piperazine] (I: H-Y[dPen]GF / II: H-Y[dPen]GF; disulfide I:2-II:2; linker I:C-II:C via Piperazine(1,4-diyl))", "values": [
      {"measurement": "Ki", "setting": "[4]; MOR [3H]DAMGO Ki", "value": 2.9, "unit": "nM"},
      {"measurement": "Ki", "setting": "[4]; MOR [3H]DAMGO pKi", "value": 2.88, "unit": "nM"},
      {"measurement": "Ki", "setting": "[5]; DOR [3H]DADLE Ki", "value": 1.9, "unit": "nM"},
      {"measurement": "Ki", "setting": "[5]; DOR [3H]DADLE pKi", "value": 2, "unit": "nM"},
      {"measurement": "Ki", "setting": "[6]; KOR [3H]U69593 Ki", "value": 5.6, "unit": "nM"},
      {"measurement": "Ki", "setting": "[6]; KOR [3H]U69593 pKi", "value": 5.62, "unit": "nM"},
      {"measurement": "EC50", "setting": "[7]; MOR EC50, agonist mode", "value": 191, "unit": "nM"},
      {"measurement": "EC50", "setting": "[7]; MOR pEC50, agonist mode", "value": 191, "unit": "nM"},
      {"measurement": "EC50", "setting": "[8]; DOR EC50, agonist mode", "value": 269, "unit": "nM"},
      {"measurement": "EC50", "setting": "[8]; DOR pEC50, agonist mode", "value": 269, "unit": "nM"},
      {"measurement": "EC50", "setting": "[9]; KOR EC50", "value": 269, "unit": "nM"},
      {"measurement": "EC50", "setting": "[9]; KOR pEC50", "value": 269, "unit": "nM"}
    ]}
  ]
}
